Experimental data taken from patent publication US20240374591A1, “CEREBLON BINDING COMPOUNDS, COMPOSITIONS THEREOF, AND METHODS OF TREATMENT THEREWITH” (CELGENE CORPORATION, priority 2021, published 2024).
Where a name gives a salt, the structure may show the parent alone.

Molecular target: T1, AR in VCaP cells (Homo sapiens, UniProt P10275)
T1 construct: endogenous in cells; host or cells: VCaP cells
T1 sequence (P10275 1-920): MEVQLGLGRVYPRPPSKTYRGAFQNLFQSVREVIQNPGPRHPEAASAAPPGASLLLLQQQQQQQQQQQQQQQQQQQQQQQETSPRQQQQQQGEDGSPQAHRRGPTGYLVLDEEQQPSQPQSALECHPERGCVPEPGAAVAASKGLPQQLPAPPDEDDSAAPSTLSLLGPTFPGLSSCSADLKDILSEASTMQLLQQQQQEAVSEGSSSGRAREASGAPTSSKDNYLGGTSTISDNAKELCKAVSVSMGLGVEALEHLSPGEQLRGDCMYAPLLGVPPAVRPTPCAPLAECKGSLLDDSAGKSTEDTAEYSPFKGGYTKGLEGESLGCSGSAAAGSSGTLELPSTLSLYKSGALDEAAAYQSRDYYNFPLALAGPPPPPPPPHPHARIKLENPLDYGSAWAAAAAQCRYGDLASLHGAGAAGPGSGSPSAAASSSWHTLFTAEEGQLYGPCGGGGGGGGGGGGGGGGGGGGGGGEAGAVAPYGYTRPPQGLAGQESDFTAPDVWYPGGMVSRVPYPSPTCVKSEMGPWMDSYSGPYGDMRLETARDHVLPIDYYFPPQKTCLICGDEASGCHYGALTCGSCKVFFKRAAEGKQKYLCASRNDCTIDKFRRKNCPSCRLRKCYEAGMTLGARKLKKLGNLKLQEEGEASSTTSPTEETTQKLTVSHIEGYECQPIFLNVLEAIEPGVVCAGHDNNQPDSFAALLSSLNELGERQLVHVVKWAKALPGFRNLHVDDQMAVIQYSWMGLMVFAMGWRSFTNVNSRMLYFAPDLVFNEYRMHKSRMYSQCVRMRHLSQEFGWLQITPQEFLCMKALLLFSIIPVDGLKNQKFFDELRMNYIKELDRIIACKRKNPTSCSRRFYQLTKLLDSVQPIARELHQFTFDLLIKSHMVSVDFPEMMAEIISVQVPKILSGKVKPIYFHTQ
Assay: VCAP AR Degradation Assay (AR ELISA, 24 h)
Type: cell-based
Details: for DC50: concentration giving 50% AR degradation vs DMSO control; for remaining activity at up to 5 µM: lowest measured AR level normalized to DMSO control, top concentration 5 μM, read-out: Y
Experimental: VCAP AR Degradation Assay. Test compounds were pre-dispensed into a Corning CellBind 96-well clear bottom plate (Cat #3300) using an acoustic dispenser to make a 10-point concentration series at 1:3 dilution for each compound. The final top concentration of each compound was 5 μM. DMSO at a final concentration of 0.1% was used as a control. VCaP cells cultured in DMEM with 8% fetal bovine serum (FBS) were seeded at 50K cells per well in a 200 μL volume into the compound plate and incubated at 37° C. in a CO2 incubator for 24 h. The medium was carefully removed from the cells and the plate was placed on ice. One hundred μL of ice-cold 1× cell lysis buffer from Cell Signaling Technologies (Cat #9803) was added to each well of the cells and the plate was incubated at 4° C. on a shaker for 1 h. Fifteen μL of cell lysate was used for AR ELISA detection using a PathScan Total Sandwich AR ELISA kit (Cell Signaling Technology, Cat #12580). AR levels in compound-treated wells were normalized to that of DMSO control and expressed as percent of control (PoC) (y). A Four Parameter Logistic Model (Sigmoidal Dose-Response Model) was used to determine the compound's DC50, and EC50, using the following equation: […]
The lowest measured AR level normalized to DMSO control in response to compound treatment, termed Y value, was used to characterize the compound-mediated AR degradation efficiency.

Compound | DC50 [nM] | remaining activity at up to 5 µM [%]
C[C@@H]1C[C@@H](CCO[C@H]2CC[C@H](N3C(=S)N(c4ccc(C#N)c(C(F)(F)F)c4)C(=O)C3(C)C)CC2)C[C@H](C)N1CC(=O)Nc1ccc(C2CCC(=O)NC2=O)nc1 (stereo partly drawn) [Cmpd 14, 2-((2R,4r,6S)-4-(2-((trans-4-(3-(4-Cyano-3-(trifluoromethyl)phenyl)-5,5-dimethyl-4-oxo-2-thioxoimidazolidin-1-yl)cyclohexyl)oxy)ethyl)-2,6-dimethylpiperidin-1-yl)-N-(6-(2,6-dioxopiperidin-3-yl)pyridin-3-yl)acetamide hydrochloride] | ≤ 5 | 20 to 30
C[C@@H]1CN(CCCC[C@H]2CC[C@H](N3C(=S)N(c4ccc(C#N)c(C(F)(F)F)c4)C(=O)C3(C)C)CC2)C[C@H](C)N1CC(=O)Nc1ccc(N2CCC(=O)NC2=O)nc1 [Cmpd 15, 2-((2R,6S)-4-(4-((trans)-4-(3-(4-Cyano-3-(trifluoromethyl)phenyl)-5,5-dimethyl-4-oxo-2-thioxoimidazolidin-1-yl)cyclohexyl)butyl)-2,6-dimethylpiperazin-1-yl)-N-(6-(2,4-dioxotetrahydropyrimidin-1(2H)-yl)pyridin-3-yl)acetamide] | 100 to 10000 | 30 to 70
C[C@@H]1CN(CCCC[C@H]2CC[C@H](N3C(=S)N(c4ccc(C#N)c(C(F)(F)F)c4)C(=O)C3(C)C)CC2)C[C@H](C)N1CC(=O)Nc1ccc(C2CCC(=O)NC2=O)nc1 (stereo partly drawn) [Cmpd 16, 2-((2R,6S)-4-(4-((trans)-4-(3-(4-Cyano-3-(trifluoromethyl)phenyl)-5,5-dimethyl-4-oxo-2-thioxoimidazolidin-1-yl)cyclohexyl)butyl)-2,6-dimethylpiperazin-1-yl)-N-(6-(2,6-dioxopiperidin-3-yl)pyridin-3-yl)acetamide] | ≤ 5 | 20 to 30
C[C@@H]1C[C@H](CCO[C@H]2CC[C@H](N3C(=S)N(c4ccc(C#N)c(C(F)(F)F)c4)C(=O)C3(C)C)CC2)C[C@H](C)N1CC(=O)Nc1ccc(C2CCC(=O)NC2=O)nc1 (stereo partly drawn) [Cmpd 17, 2-((2R,4r,6S)-4-(2-(((trans)-4-(3-(4-Cyano-3-(trifluoromethyl)phenyl)-5,5-dimethyl-4-oxo-2-thioxoimidazolidin-1-yl)cyclohexyl)oxy)ethyl)-2,6-dimethylpiperidin-1-yl)-N-(6-(2,6-dioxopiperidin-3-yl)pyridin-3-yl)acetamide] | ≤ 5 | 20 to 30
C[C@@H]1C[C@H](CCO[C@H]2CC[C@H](N3C(=S)N(c4cnc(C#N)c(C(F)(F)F)c4)C(=O)C3(C)C)CC2)C[C@H](C)N1CC(=O)Nc1ccc(C2CCC(=O)NC2=O)nc1 (stereo partly drawn) [Cmpd 18, 2-((2R,4r,6S)-4-(2-(((trans)-4-(3-(6-Cyano-5-(trifluoromethyl)pyridin-3-yl)-5,5-dimethyl-4-oxo-2-thioxoimidazolidin-1-yl)cyclohexyl)oxy)ethyl)-2,6-dimethylpiperidin-1-yl)-N-(6-(2,6-dioxopiperidin-3-yl)pyridin-3-yl)acetamide] | ≤ 5 | 0 to 20
C[C@@H]1C[C@@H](CCO[C@H]2CC[C@H](N3C(=S)N(c4cnc(C#N)c(C(F)(F)F)c4)C(=O)C3(C)C)CC2)C[C@H](C)N1CC(=O)Nc1ccc(C2CCC(=O)NC2=O)nc1 (stereo partly drawn) [Cmpd 19, 2-((2R,4s,6S)-4-(2-(((trans)-4-(3-(6-Cyano-5-(trifluoromethyl)pyridin-3-yl)-5,5-dimethyl-4-oxo-2-thioxoimidazolidin-1-yl)cyclohexyl)oxy)ethyl)-2,6-dimethylpiperidin-1-yl)-N-(6-(2,6-dioxopiperidin-3-yl)pyridin-3-yl)acetamide] | ≤ 5 | 20 to 30
C[C@@H]1C[C@H](OCCC[C@H]2CC[C@H](N3C(=S)N(c4ccc(C#N)c(C(F)(F)F)c4)C(=O)C3(C)C)CC2)C[C@H](C)N1CC(=O)Nc1ccc(C2CCC(=O)NC2=O)nc1 (stereo partly drawn) [Cmpd 20, 2-((2R,4r,6S)-4-(3-((trans)-4-(3-(4-Cyano-3-(trifluoromethyl)phenyl)-5,5-dimethyl-4-oxo-2-thioxoimidazolidin-1-yl)cyclohexyl)propoxy)-2,6-dimethylpiperidin-1-yl)-N-(6-(2,6-dioxopiperidin-3-yl)pyridin-3-yl)acetamide] | 5 to 10 | 20 to 30
CC1(C)C(=O)N(c2cnc(C#N)c(C(F)(F)F)c2)C(=S)N1[C@H]1CC[C@H](CCCN2CCN(CC(=O)Nc3ccc(C4CCC(=O)NC4=O)nc3)[C@@H](C(F)(F)F)C2)CC1 (stereo partly drawn) [Cmpd 21, 2-((R)-4-(3-((trans)-4-(3-(6-Cyano-5-(trifluoromethyl)pyridin-3-yl)-5,5-dimethyl-4-oxo-2-thioxoimidazolidin-1-yl)cyclohexyl)propyl)-2-(trifluoromethyl)piperazin-1-yl)-N-(6-(2,6-dioxopiperidin-3-yl)pyridin-3-yl)acetamide] | ≤ 5 | 0 to 20
CC1(C)C(=O)N(c2ccc(C#N)c(C(F)(F)F)c2)C(=S)N1[C@H]1CC[C@H](CCCN2CCN(CC(=O)Nc3ccc(C4CCC(=O)NC4=O)nc3)[C@@H](C(F)(F)F)C2)CC1 (stereo partly drawn) [Cmpd 22, 2-((R)-4-(3-((trans)-4-(3-(4-Cyano-3-(trifluoromethyl)phenyl)-5,5-dimethyl-4-oxo-2-thioxoimidazolidin-1-yl)cyclohexyl)propyl)-2-(trifluoromethyl)piperazin-1-yl)-N-(6-(2,6-dioxopiperidin-3-yl)pyridin-3-yl)acetamide] | 10 to 100 | 20 to 30
CC1(C)C(=O)N(c2cnc(C#N)c(C(F)(F)F)c2)C(=S)N1[C@H]1CC[C@H](OCCCN2CCN(CC(=O)Nc3ccc(C4CCC(=O)NC4=O)nc3)[C@@H](C(F)(F)F)C2)CC1 (stereo partly drawn) [Cmpd 23, 2-((R)-4-(3-(((trans)-4-(3-(6-Cyano-5-(trifluoromethyl)pyridin-3-yl)-5,5-dimethyl-4-oxo-2-thioxoimidazolidin-1-yl)cyclohexyl)oxy)propyl)-2-(trifluoromethyl)piperazin-1-yl)-N-(6-(2,6-dioxopiperidin-3-yl)pyridin-3-yl)acetamide] | ≤ 5 | 0 to 20
CC1(C)C(=O)N(c2cnc(C#N)c(C(F)(F)F)c2)C(=S)N1[C@H]1CC[C@H](OCCN2CCN(CC(=O)Nc3ccc(C4CCC(=O)NC4=O)nc3)[C@@H](C(F)(F)F)C2)CC1 (stereo partly drawn) [Cmpd 24, 2-((R)-4-(2-(((trans)-4-(3-(6-Cyano-5-(trifluoromethyl)pyridin-3-yl)-5,5-dimethyl-4-oxo-2-thioxoimidazolidin-1-yl)cyclohexyl)oxy)ethyl)-2-(trifluoromethyl)piperazin-1-yl)-N-(6-(2,6-dioxopiperidin-3-yl)pyridin-3-yl)acetamide] | ≤ 5 | 20 to 30
CC1(C)C(=O)N(c2ccc(C#N)c(C(F)(F)F)c2)C(=S)N1[C@H]1CC[C@H](OCCCN2CCN(CC(=O)Nc3ccc(C4CCC(=O)NC4=O)nc3)[C@@H](C(F)(F)F)C2)CC1 (stereo partly drawn) [Cmpd 25, 2-((R)-4-(3-(((trans)-4-(3-(4-Cyano-3-(trifluoromethyl)phenyl)-5,5-dimethyl-4-oxo-2-thioxoimidazolidin-1-yl)cyclohexyl)oxy)propyl)-2-(trifluoromethyl)piperazin-1-yl)-N-(6-(2,6-dioxopiperidin-3-yl)pyridin-3-yl)acetamide] | ≤ 5 | 20 to 30
C[C@@H]1C[C@H](OCCC[C@H]2CC[C@H](N3C(=S)N(c4cnc(C#N)c(C(F)(F)F)c4)C(=O)C3(C)C)CC2)C[C@H](C)N1CC(=O)Nc1ccc(C2CCC(=O)NC2=O)nc1 (stereo partly drawn) [Cmpd 26, 2-((2R,4r,6S)-4-(3-((trans)-4-(3-(6-Cyano-5-(trifluoromethyl)pyridin-3-yl)-5,5-dimethyl-4-oxo-2-thioxoimidazolidin-1-yl)cyclohexyl)propoxy)-2,6-dimethylpiperidin-1-yl)-N-(6-(2,6-dioxopiperidin-3-yl)pyridin-3-yl)acetamide] | ≤ 5 | 0 to 20
